In the supplement of paper PMC11061612:

What was measured:
[1] = tested on: SK-HEP-1 (Hepatocellular Carcinoma); experiment: combination Emax (second highest fraction inhibited in the dose matrix, 72 h); higher = more inhibition; extreme values may be limits of the assay
How it was run: (§1)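 Cell lines grown in DMEM/F12 or RPMI with 10% FBS were plated in 1536-well plates and held 24 hours at 37°C, 5% CO2 before 72 hours of exposure to two-drug dose matrices, with DMSO typically at 0.2%. CellTiter-Glo 2.0 luminescence gave viability, which was converted to inhibition. Vehicle wells were set to 0 and blank wells to 1. Combination Emax is the second-highest inhibition in the matrix, and Bliss excess is the observed combination effect minus the expected EA + EB − EA·EB, where EA and EB are the single-agent effects.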

[2] = tested on: KYSE-220 (Esophageal Squamous Cell Carcinoma); experiment: as above
How it was run: as §1

[3] = tested on: EW-7 (Ewing's Sarcoma); experiment: as above
How it was run: as §1

[4] = tested on: MDA-MB-436 (Breast Carcinoma); experiment: as above
How it was run: as §1

[5] = tested on: NCI-H1651 (Lung Adenocarcinoma); experiment: as above
How it was run: as §1

[6] = tested on: HCC1395 (Breast Carcinoma); experiment: as above
How it was run: as §1

[7] = tested on: 769-P (Kidney Carcinoma); experiment: as above
How it was run: as §1

[8] = tested on: WM1552C (Melanoma); experiment: as above
How it was run: as §1

[9] = tested on: NCI-H2087 (Lung Adenocarcinoma); experiment: as above
How it was run: as §1

[10] = tested on: A2780 (Ovarian Carcinoma); experiment: as above
How it was run: as §1

[11] = tested on: NCI-H441 (Lung Adenocarcinoma); experiment: as above
How it was run: as §1

[12] = tested on: PEO1 (Ovarian Carcinoma); experiment: as above
How it was run: as §1

[13] = tested on: JHH-2 (Hepatocellular Carcinoma); experiment: as above
How it was run: as §1

[14] = tested on: HCC70 (Breast Carcinoma); experiment: as above
How it was run: as §1

[15] = tested on: MHH-ES-1 (Ewing's Sarcoma); experiment: as above
How it was run: as §1

[16] = tested on: CGTH-W-1 (Thyroid Gland Carcinoma); experiment: as above
How it was run: as §1

[17] = tested on: EB2 (Burkitt's Lymphoma); experiment: Bliss excess, mean over the matrix (fraction); higher = more synergy
How it was run: as §1

[18] = tested on: EW-7 (Ewing's Sarcoma); experiment: as above
How it was run: as §1

[19] = tested on: SW620 (Colorectal Carcinoma); experiment: as above
How it was run: as §1

[20] = tested on: UACC-812 (Breast Carcinoma); experiment: as above
How it was run: as §1
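Throughout, for Bliss excess, mean over the matrix: after 72 h of two-drug dosing.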

| Structure (SMILES) | combination Emax [1] | combination Emax [2] | combination Emax [3] | combination Emax [4] | combination Emax [5] | combination Emax [6] | combination Emax [7] | combination Emax [8] | combination Emax [9] | combination Emax [10] | combination Emax [11] | combination Emax [12] | combination Emax [13] | combination Emax [14] | combination Emax [15] | combination Emax [16] | Bliss excess [17] | Bliss excess [18] | Bliss excess [19] | Bliss excess [20] |
| --- | --- | --- | --- | --- | --- | --- | --- | --- | --- | --- | --- | --- | --- | --- | --- | --- | --- | --- | --- | --- |
| CN(CCO)CC[C@H](CSc1ccccc1)Nc1ccc(S(=O)(=O)NC(=O)c2ccc(N3CCC([C@@H](O)c4ccccc4-c4ccc(Cl)cc4)CC3)cc2)cc1S(=O)(=O)C(F)(F)F [AZD4320] + C1CN(CCC1(C(=O)N[C@@H](CCO)C2=CC=C(C=C2)Cl)N)C3=NC=NC4=C3C=CN4 [Capivasertib] (first compound max 1 µM, 7x7, partner max 3 µM) | 0.245 | 0.237 | 0.861 | 0.142 | 0.193 | 0.408 | 0.576 | 0.183 | 0.232 | 0.515 | 0.173 | 0.432 | 0.539 | 0.813 | 0.48 | 0.19 | 0.0549 | 0.0586 | -0.0498 | -0.0135 |
| CN(CCO)CC[C@H](CSc1ccccc1)Nc1ccc(S(=O)(=O)NC(=O)c2ccc(N3CCC([C@@H](O)c4ccccc4-c4ccc(Cl)cc4)CC3)cc2)cc1S(=O)(=O)C(F)(F)F [AZD4320] + C=CCn1c(=O)c2cnc(Nc3ccc(N4CCN(C)CC4)cc3)nc2n1-c1cccc(C(C)(C)O)n1 [AZD1775] (first compound max 1 µM, partner max 1 µM) | 0.327 | 0.795 | 1 | 0.196 | 0.746 | 0.69 | 0.962 | 0.471 | 0.68 | 0.666 | 0.552 | 0.529 | 0.604 | 0.607 | 0.947 | 0.106 | 0.0346 | 0.14 | 0.021 | -0.0281 |
| CN(CCO)CC[C@H](CSc1ccccc1)Nc1ccc(S(=O)(=O)NC(=O)c2ccc(N3CCC([C@@H](O)c4ccccc4-c4ccc(Cl)cc4)CC3)cc2)cc1S(=O)(=O)C(F)(F)F [AZD4320] + CC(=O)O[C@H]1C(=O)[C@@]2(C)[C@H]([C@H](OC(=O)c3ccccc3)[C@]3(O)C[C@H](OC(=O)[C@H](O)[C@@H](NC(=O)c4ccccc4)c4ccccc4)C(C)=C1C3(C)C)[C@]1(OC(C)=O)CO[C@@H]1C[C@@H]2O [Paclitaxel] (first compound max 1 µM, 7x7, partner max 3 µM) | 0.952 | 0.793 | 1 | 0.65 | 0.981 | 0.838 | 0.958 | 0.941 | 0.976 | 0.946 | 0.735 | 0.852 | 0.93 | 0.875 | 1 | 0.881 | -0.0306 | 0.132 | 0.11 | 0.0887 |
| CN(CCO)CC[C@H](CSc1ccccc1)Nc1ccc(S(=O)(=O)NC(=O)c2ccc(N3CCC([C@@H](O)c4ccccc4-c4ccc(Cl)cc4)CC3)cc2)cc1S(=O)(=O)C(F)(F)F [AZD4320] + CCN(CCO)CCCOc1ccc2c(Nc3cc(CC(=O)Nc4cccc(F)c4)[nH]n3)ncnc2c1 [AZD2811] (first compound max 1 µM, 7x7, partner max 1 µM) | 0.793 | 0.196 | 0.817 | 0.0639 | 0.204 | 0.309 | 0.752 | 0.481 | 0.464 | 0.49 | 0.202 | 0.454 | 0.169 | 0.66 | 0.924 | 0.292 | 0.0254 | 0.126 | 0.0931 | -0.0194 |
| CN(CCO)CC[C@H](CSc1ccccc1)Nc1ccc(S(=O)(=O)NC(=O)c2ccc(N3CCC([C@@H](O)c4ccccc4-c4ccc(Cl)cc4)CC3)cc2)cc1S(=O)(=O)C(F)(F)F [AZD4320] + C[C@@H]1COCCN1C2=NC(=NC(=C2)C3(CC3)[S@](=N)(=O)C)C4=C5C=CNC5=NC=C4 [AZD6738] (first compound max 1 µM, 7x7, partner max 10 µM) | 0.411 | 0.877 | 1 | 0.34 | 0.728 | 0.819 | 0.966 | 0.73 | 0.919 | 0.799 | 0.69 | 0.686 | 0.792 | 0.845 | 0.85 | 0.424 | 0.0248 | 0.0835 | -0.0151 | -0.0348 |
